# Test results reported in PMC6112376, “Comprehensive Analyses and Prioritization of Tox21 10K Chemicals Affecting Mitochondrial Function by in-Depth Mechanistic Studies” (Environmental Health Perspectives, 2018).
# Read-outs that look alike come from different tables or passages of the source.
# Tests used:
# [1] = tested on: HepG2 cells; assay: cells; details: Homo sapiens
# [2] = tested on: HeLa cells expressing YFP-Parkin; assay: Parkin translocation assay; type: cell-based, human
# [3] = tested on: HepG2 cells; assay: Intracellular ATP content (cell viability) assay; type: cell-based, human; details: Homo sapiens, HepG2, 40 h
# [4] = tested on: rat primary hepatocytes
# [5] = tested on: Caenorhabditis elegans strain PE255; assay: In vivo C. elegans ATP status assay
# [6] = tested on: hNSC; assay: MMP assay in human neural stem cells (hNSC); type: cell-based; details: Homo sapiens, Neural stem cell, 1 h, read-out: hNSC IC50 (MMP)
# [7] = tested on: HepG2 cells; details: cited from earlier work
# [8] = tested on: Caenorhabditis elegans (Bristol N2); assay: C. elegans larval development and growth assay
# [9] = tested on: Nrf2/ARE (ARE-bla HepG2 cells); assay: ARE β-lactamase reporter gene assay; type: cell-based, human; details: 16 h incubation; mean±SD of three experiments
# [10] = tested on: rat primary hepatocytes; assay: MMP assay in rat primary hepatocytes; details: Rattus norvegicus, Hepatocyte
# [11] = tested on: Caenorhabditis elegans (Bristol N2); details: Bristol N2 (wild type), Caenorhabditis elegans, in vivo
# [12] = tested on: Caenorhabditis elegans strain PE255; details: PE255 [sur-5::luc+::gfp; rol-6(su1006)], Caenorhabditis elegans, in vivo
# [13] = tested on: HepG2 cells; assay: ROS-Glo hydrogen peroxide (ROS) assay; type: cell-based, human; details: Homo sapiens, HepG2, 2 h, read-out: ROS (HepG2) EC50
# [14] = tested on: p53 (p53-bla HCT-116 cells); assay: p53 β-lactamase reporter gene assay; type: cell-based, human; details: 16 h incubation; mean±SD of three experiments
# [15] = tested on: isolated rat liver mitochondria; assay: Oxygen consumption, Clark-type oxygen electrode; type: biochemical
smiles,measurement,setting,value
O=C1c2ccccc2C(=O)C1C(=O)C(c1ccccc1)c1ccc(Cl)cc1 (stereo not shown) [Chlorophacinone],IC50,"[1]; HepG2, 1 h, read-out: HepG2 IC50 Galactose (MMP)",46.3 µM
same,IC50,"[1]; HepG2, 1 h, read-out: HepG2 IC50 Glucose (MMP)",27.1 µM
same,IC50,"[1]; HepG2, read-out: MMP assays IC50 (µM) HepG2",3.55 µM
same,Emax,"[1]; HepG2, read-out: MMP assays efficacy (%) HepG2",109%
same,Parkin recruitment,[2],Inactive
same,IC50,"[3]; read-out: ATP (HepG2, galactose) IC50",41.4 µM
same,IC50,"[3]; read-out: ATP (HepG2, glucose) IC50",48.2 µM
same,MMP assays efficacy (%) Rat Hepatocytes,[4],-86±11%
same,Rat hepatocytes (efficacy) (MMP),[4],10.5±4.28 ( −97.8±13.3 ) %
same,LUM: mean difference in luminescence (ATP content) relative to plate controls,[5]; 0.5 µM,0.2858
same,LUM: mean difference in luminescence (ATP content) relative to plate controls,[5]; 1 µM,0.2624
same,LUM: mean difference in luminescence (ATP content) relative to plate controls,[5]; 5 µM,0.9157
same,LUM: mean difference in luminescence (ATP content) relative to plate controls,[5]; 10 µM,0.9688
same,LUM: mean difference in luminescence (ATP content) relative to plate controls,[5]; 25 µM,0.9113
same,LUM: mean difference in luminescence (ATP content) relative to plate controls,[5]; 50 µM,1.406
same,LUM: mean difference in luminescence (ATP content) relative to plate controls,[5]; 75 µM,1.423
same,LUM: mean difference in luminescence (ATP content) relative to plate controls,[5]; 100 µM,1.347
same,minimal effective concentration,"[5]; Caenorhabditis elegans, read-out: LEC LUM: lowest effect concentration for luminescence, a measure of nematode ATP content",5 µM
same,IC50,[6],12.6 µM
same,MMP assays efficacy (%) qHTS-HepG2,[7],-103±9%
same,IC50,[7]; read-out: MMP assays IC50 (µM) qHTS-HepG2,0.64 ± 0.25 µM
same,EXT: mean difference in nematode size relative to plate controls,[8]; 0.5 µM,0.2337
same,EXT: mean difference in nematode size relative to plate controls,[8]; 1 µM,0.388
same,EXT: mean difference in nematode size relative to plate controls,[8]; 5 µM,0.7901
same,EXT: mean difference in nematode size relative to plate controls,[8]; 10 µM,1.11
same,EXT: mean difference in nematode size relative to plate controls,[8]; 25 µM,1.457
same,EXT: mean difference in nematode size relative to plate controls,[8]; 50 µM,1.812
same,EXT: mean difference in nematode size relative to plate controls,[8]; 75 µM,1.667
same,EXT: mean difference in nematode size relative to plate controls,[8]; 100 µM,1.868
same,minimal effective concentration,"[8]; Caenorhabditis elegans, read-out: LEC EXT: lowest effect concentration for extinction, a measure of nematode size",1 µM
same,ARE (HepG2) EC50,[9],Inactive
same,IC50,"[10]; 1 h, read-out: Rat hepatocytes IC50 (MMP)",10.5 µM
same,IC50,[10]; read-out: MMP assays IC50 (µM) Rat Hepatocytes,4.65 ± 4.78 µM
same,"LEC (lowest effect concentration), larval growth assay",[11],< 10 µM
same,"LEC (lowest effect concentration), ATP assay",[12],< 10 µM
same,EC50,[13],41.7 µM
same,p53 (HCT-116) EC50,[14],Inactive
same,Potential Mechanism,[15],"Uncoupler at low concentrations (0.8-4 µM), and Uncoupler + inhibitor at high concentrations (20 -100 µM)"
same,"I-ADP, % of control (O2 consumption rate)",[15]; 0.16 µM,104 (45.2) % of control
same,"I-sub, % of control (O2 consumption rate)",[15]; 0.16 µM,112 (14.7) % of control
same,"II-ADP, % of control (O2 consumption rate)",[15]; 0.16 µM,97 (66.0) % of control
same,"II-sub, % of control (O2 consumption rate)",[15]; 0.16 µM,97 (20.2) % of control
same,"I-ADP, % of control (O2 consumption rate)",[15]; 0.8 µM,95 (41.2) % of control
same,"I-sub, % of control (O2 consumption rate)",[15]; 0.8 µM,111 (14.5) % of control
same,"II-ADP, % of control (O2 consumption rate)",[15]; 0.8 µM,107 (72.3) % of control
same,"II-sub, % of control (O2 consumption rate)",[15]; 0.8 µM,125 (26.1) % of control
same,"I-ADP, % of control (O2 consumption rate)",[15]; 4 µM,97 (42.2) % of control
same,"I-sub, % of control (O2 consumption rate)",[15]; 4 µM,182 (23.9) % of control
same,"II-ADP, % of control (O2 consumption rate)",[15]; 4 µM,87 (58.8) % of control
same,"II-sub, % of control (O2 consumption rate)",[15]; 4 µM,203 (42.5) % of control
same,"I-ADP, % of control (O2 consumption rate)",[15]; 20 µM,72 (31.3) % of control
same,"I-sub, % of control (O2 consumption rate)",[15]; 20 µM,285 (37.3) % of control
same,"II-ADP, % of control (O2 consumption rate)",[15]; 20 µM,39 (26.3) % of control
same,"II-sub, % of control (O2 consumption rate)",[15]; 20 µM,150 (31.3) % of control
same,"I-ADP, % of control (O2 consumption rate)",[15]; 100 µM,21 (11.4) % of control
same,"I-sub, % of control (O2 consumption rate)",[15]; 100 µM,110 (14.8) % of control
same,"II-ADP, % of control (O2 consumption rate)",[15]; 100 µM,15 (9.9) % of control
same,"II-sub, % of control (O2 consumption rate)",[15]; 100 µM,61 (13.1) % of control
